Measurements from patent publication US9708311B2, “Benzimidazole derivatives as EP4 antagonists” (BAYER PHARMA AKTIENGESELLSCHAFT, priority 2012, dated 2017).

molecular target: human EP4 receptor (Homo sapiens (Human), UniProt P35408); test: Test for antagonism of the human EP4 receptor signal (cAMP HTRF); type: cell-based; details: cells expressing hEP4, PGE2 at EC80 (0.4 nM), cAMP TR-FRET; read-out: Antagonism hEP4 IC50
Summary of the method: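 Antagonism of PGE2-stimulated cAMP formation in hEP4-R cells with IBMX present. After lysis, cAMP measured by competitive TR-FRET (Eu cryptate anti-cAMP antibody vs cAMP-d2), 20 min at room temperature. Read-out is the 665/620 nm emission ratio; antagonism appears as restored FRET signal.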

human EP4 receptor, sequence (P35408 whole entry): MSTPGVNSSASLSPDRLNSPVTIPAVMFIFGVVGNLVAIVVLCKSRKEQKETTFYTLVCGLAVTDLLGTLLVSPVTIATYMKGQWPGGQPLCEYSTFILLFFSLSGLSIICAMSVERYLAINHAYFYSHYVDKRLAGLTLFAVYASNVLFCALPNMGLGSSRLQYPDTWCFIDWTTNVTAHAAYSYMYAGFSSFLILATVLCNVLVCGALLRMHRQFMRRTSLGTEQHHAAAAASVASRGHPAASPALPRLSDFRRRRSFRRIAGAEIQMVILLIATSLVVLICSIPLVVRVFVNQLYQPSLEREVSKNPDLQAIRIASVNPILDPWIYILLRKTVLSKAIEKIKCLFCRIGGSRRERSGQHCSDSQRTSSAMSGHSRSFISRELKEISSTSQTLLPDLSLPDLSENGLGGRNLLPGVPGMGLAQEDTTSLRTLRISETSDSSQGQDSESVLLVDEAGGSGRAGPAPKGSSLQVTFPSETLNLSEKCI

IC50 [nM] | Compound
1710 | CCOC(=O)c1ccc2c(c1)nc(-c1ccc3c(c1)c1ccccc1n3CC)n2CCCOC [Example 99, Ethyl 2-(9-ethyl-9H-carbazol-3-yl)-1-(3-methoxypropyl)-1H-benzimidazole-5-carboxylate]
158 | CCn1c2ccccc2c2cc(-c3nc4cc(C(=O)O)ccc4n3CCCOC)ccc21 [Example 100, 2-(9-Ethyl-9H-carbazol-3-yl)-1-(3-methoxypropyl)-1H-benzimidazole-5-carboxylic acid]
989 | CCn1c2ccccc2c2cc(-c3nc4cc(C(C)(C)O)ccc4n3CCOC)ccc21 [Example 101, 2-[2-(9-Ethyl-9H-carbazol-3-yl)-1-(2-methoxyethyl)-1H-benzimidazol-5-yl]propan-2-ol]
2830 | CCn1c2ccccc2c2cc(-c3nc4cc(C(=O)O)c(OC)cc4n3CC3CC3)ccc21 [Example 102, 1-(Cyclopropylmethyl)-2-(9-ethyl-9H-carbazol-3-yl)-6-methoxy-1H-benzimidazole-5-carboxylic acid]
3110 | CCn1c2ccccc2c2cc(-c3nc4cc(C(=O)O)c(OC)cc4n3CCOC)ccc21 [Example 103, 2-(9-Ethyl-9H-carbazol-3-yl)-6-methoxy-1-(2-methoxyethyl)-1H-benzimidazole-5-carboxylic acid]
64.3 | CCn1c2ccccc2c2cc(-c3nc4c(C)c(C(=O)O)ccc4n3CCOC)ccc21 [Example 105, 2-(9-Ethyl-9H-carbazol-3-yl)-1-(2-methoxyethyl)-4-methyl-1H-benzimidazole-5-carboxylic acid]
43.7 | CCn1c2ccccc2c2cc(-c3nc4cc(-c5n[nH]c(=O)o5)ccc4n3CCOC)ccc21 [Example 106, 5-[2-(9-Ethyl-9H-carbazol-3-yl)-1-(2-methoxyethyl)-1H-benzimidazol-5-yl]-1,3,4-oxadiazol-2(3H)-one]
433 | CCn1c2ccccc2c2cc(-c3nc4c(C)c(C(=O)O)ccc4n3CC3CC3)cnc21 [Example 107, 1-(Cyclopropylmethyl)-2-(9-ethyl-9H-pyrido[2,3-b]indol-3-yl)-4-methyl-1H-benzimidazole-5-carboxylic acid]
119 | CCn1c2ccc(-c3nc4cc(C(=O)O)ccc4n3CC3CC3)cc2c2ccncc21 [Example 108, 1-(Cyclopropylmethyl)-2-(9-ethyl-9H-beta-carbolin-6-yl)-1H-benzimidazole-5-carboxylic acid]
178 | CCn1c2ccncc2c2cc(-c3nc4cc(C(=O)O)ccc4n3CC3CC3)ccc21 [Example 109, 1-(Cyclopropylmethyl)-2-(5-ethyl-5H-pyrido[4,3-b]indol-8-yl)-1H-benzimidazole-5-carboxylic acid]
1180 | CCn1c2ccccc2c2cc(-c3nc4cc(C(=O)O)c(C)cc4n3CC3CC3)ccc21 [Example 110, 1-(Cyclopropylmethyl)-2-(9-ethyl-9H-carbazol-3-yl)-6-methyl-1H-benzimidazole-5-carboxylic acid]
612 | CCn1c2ccccc2c2cc(-c3nc4cc(C(=O)O)c(C)cc4n3CCOC)ccc21 [Example 111, 2-(9-Ethyl-9H-carbazol-3-yl)-1-(2-methoxyethyl)-6-methyl-1H-benzimidazole-5-carboxylic acid]
34.6 | CCn1c2ccccc2c2cc(-c3nc4cc(C(=O)O)c(F)cc4n3CC3CC3)ccc21 [Example 112, 1-(Cyclopropylmethyl)-2-(9-ethyl-9H-carbazol-3-yl)-6-fluoro-1H-benzimidazole-5-carboxylic acid]
59.5 | CCn1c2ccccc2c2cc(-c3nc4cc(C(=O)O)c(F)cc4n3CCOC)ccc21 [Example 113, 2-(9-Ethyl-9H-carbazol-3-yl)-6-fluoro-1-(2-methoxyethyl)-1H-benzimidazole-5-carboxylic acid]
6.42 | CCn1c2ccccc2c2cc(-c3nc4c(F)c(C(=O)O)ccc4n3CCOC)ccc21 [Example 114, 2-(9-Ethyl-9H-carbazol-3-yl)-4-fluoro-1-(2-methoxyethyl)-1H-benzimidazole-5-carboxylic acid]
11.6 | CCn1c2ccccc2c2cc(-c3nc4c(F)c(C(=O)O)ccc4n3CC3CC3)ccc21 [Example 115, 1-(Cyclopropylmethyl)-2-(9-ethyl-9H-carbazol-3-yl)-4-fluoro-1H-benzimidazole-5-carboxylic acid]
22.2 | CCn1c2ccc(-c3nc4cc(C(=O)O)ccc4n3CC3CC3)cc2c2cccnc21 [Example 116, 1-(Cyclopropylmethyl)-2-(9-ethyl-9H-pyrido[2,3-b]indol-6-yl)-1H-benzimidazole-5-carboxylic acid]
22.1 | CCn1c2ccccc2c2cc(-c3nc4cc(C(=O)O)ccc4n3CCC3CC3)ccc21 [Example 117, 1-(2-Cyclopropylethyl)-2-(9-ethyl-9H-carbazol-3-yl)-1H-benzimidazole-5-carboxylic acid]
36.2 | CCCn1c2ccccc2c2cc(-c3nc4cc(C(=O)O)ccc4n3CCOC)ccc21 [Example 118, 1-(2-Methoxyethyl)-2-(9-propyl-9H-carbazol-3-yl)-1H-benzimidazole-5-carboxylic acid]

IC50 [nM] | Compound
43.7 | C#CCn1c2ccccc2c2cc(-c3nc4cc(C(=O)O)ccc4n3CCOC)ccc21 [Example 119, 1-(2-Methoxyethyl)-2-[9-(prop-2-yn-1-yl)-9H-carbazol-3-yl]-1H-benzimidazole-5-carboxylic acid]
63 | CCCn1c2ccccc2c2cc(-c3nc4cc(C(=O)O)ccc4n3CC3CC3)ccc21 [Example 120, 1-(Cyclopropylmethyl)-2-(9-propyl-9H-carbazol-3-yl)-1H-benzimidazole-5-carboxylic acid]
100 | CCn1c2ccccc2c2cc(-c3nc4cc(C(=O)O)ccc4n3CC3CC3(C)C)ccc21 (stereo not shown) [Example 121, 1-[(2,2-Dimethylcyclopropyl)methyl]-2-(9-ethyl-9H-carbazol-3-yl)-1H-benzimidazole-5-carboxylic acid]
464 | CCOC(=O)c1ccc2c(c1)nc(-c1ccc3c(c1)c1ccccc1n3CC)n2CC1COC1 [Example 122, Ethyl 2-(9-ethyl-9H-carbazol-3-yl)-1-(oxetan-3-ylmethyl)-1H-benzimidazole-5-carboxylate]
51.5 | CCn1c2ccccc2c2cc(-c3nc4cc(C(=O)O)ccc4n3CC3COC3)ccc21 [Example 123, 2-(9-Ethyl-9H-carbazol-3-yl)-1-(oxetan-3-ylmethyl)-1H-benzimidazole-5-carboxylic acid]
94.3 | COCCn1c(-c2ccc3c(c2)c2ccccc2n3CC2CCC2)nc2cc(C(=O)O)ccc21 [Example 124, 2-[9-(Cyclobutylmethyl)-9H-carbazol-3-yl]-1-(2-methoxyethyl)-1H-benzimidazole-5-carboxylic acid]
257 | O=C(O)c1ccc2c(c1)nc(-c1ccc3c(c1)c1ccccc1n3CC1CCC1)n2CC1CC1 [Example 125, 2-[9-(Cyclobutylmethyl)-9H-carbazol-3-yl]-1-(cyclopropylmethyl)-1H-benzimidazole-5-carboxylic acid]
118 | CCn1c2ccccc2c2cc(-c3nc4cc(-c5n[nH]c(=O)o5)ccc4n3CCN(C)C)ccc21 [Example 126, 5-{1-[2-(Dimethylamino)ethyl]-2-(9-ethyl-9H-carbazol-3-yl)-1H-benzimidazol-5-yl}-1,3,4-oxadiazol-2(3H)-one]
305 | CCn1c2ccccc2c2cc(-c3nc4cc(S(N)(=O)=O)ccc4n3CCOC)ccc21 [Example 127, 2-(9-Ethyl-9H-carbazol-3-yl)-1-(2-methoxyethyl)-1H-benzimidazole-5-sulphonamide]
111 | CCn1c2ccccc2c2cc(-c3nc4cc(-n5ccnn5)ccc4n3C)ccc21 [Example 128, 9-Ethyl-3-[1-methyl-5-(1H-1,2,3-triazol-1-yl)-1H-benzimidazole-2-yl]-9H-carbazole]
944 | CCn1c2ccccc2c2cc(-c3nc4cc(S(=O)(=O)NC)ccc4n3C)ccc21 [Example 129, 2-(9-Ethyl-9H-carbazol-3-yl)-N,1-dimethyl-1H-benzimidazole-5-sulphonamide]
14.3 | CCn1c2ccccc2c2cc(-c3nc4cc(C(=O)O)ccc4n3CCOC(F)(F)F)ccc21 [Example 130, 2-(9-Ethyl-9H-carbazol-3-yl)-1-[2-(trifluoromethoxy)ethyl]-1H-benzimidazole-5-carboxylic acid]
480 | CCn1c2ccccc2c2cc(-c3nc4cc(C(=O)O)ccc4n3CC3CC3)nc(C)c21 [Example 131, 1-(Cyclopropylmethyl)-2-(9-ethyl-1-methyl-9H-beta-carbolin-3-yl)-1H-benzimidazole-5-carboxylic acid]
24.5 | CCn1c2ccccc2c2cc(-c3nc4cc(C(=O)O)ccc4n3CC3CCO3)ccc21 (stereo not shown) [Example 132, 2-(9-Ethyl-9H-carbazol-3-yl)-1-(oxetan-2-ylmethyl)-1H-benzimidazole-5-carboxylic acid]
7 | CCn1c2ccccc2c2cc(-c3nc4cc(C(=O)O)ccc4n3CC3CCCO3)ccc21 (stereo not shown) [Example 133, 2-(9-Ethyl-9H-carbazol-3-yl)-1-(tetrahydrofuran-2-ylmethyl)-1H-benzimidazole-5-carboxylic acid]
136 | CCn1c2ccccc2c2cc(-c3nc4cc(C(=O)O)ccc4n3C[C@@H](O)COC)ccc21 [Example 134, 2-(9-Ethyl-9H-carbazol-3-yl)-1-[(2R)-2-hydroxy-3-methoxypropyl]-1H-benzimidazole-5-carboxylic acid]
340 | CCn1c2ccccc2c2cc(-c3nc4cc(C(=O)O)ccc4n3C[C@H](O)COC)ccc21 [Example 135, 2-(9-Ethyl-9H-carbazol-3-yl)-1-[(2S)-2-hydroxy-3-methoxypropyl]-1H-benzimidazole-5-carboxylic acid]
325 | CCn1c2ccccc2c2cc(-c3nc4cc(C(=O)O)ccc4n3CCS(C)(=O)=O)ccc21 [Example 136, 2-(9-Ethyl-9H-carbazol-3-yl)-1-[2-(methylsulphonyl)ethyl]-1H-benzimidazole-5-carboxylic acid]
